Source: patent US8119632B2, “Bicyclic amide derivatives for enhancing glutamatergic synaptic responses” (Cortex Pharmaceuticals, Inc., priority 2007, dated 2012)

What was measured:
AMPA receptor = test: In vivo electrophysiology: amplitude of field EPSP in dentate gyrus of anesthetized animals; parameters: species or system rat; settings: for In vivo Electrophysiology: % increase in the amplitude of the field EPSP in the dentate gyrus of rat: 10 mpk i.p.
Experimental: (§1) The electrophysiological effects of the invention compounds were tested in vivo in anesthetized animals according to the following procedures. Animals are maintained under anesthesia by phenobarbital administered using a Hamilton syringe pump. Stimulating and recording electrodes are inserted into the perforant path and dentate gyrus of the hippocampus, respectively. Once electrodes are implanted, a stable baseline of evoked responses are elicited using single monophasic pulses (100 μs pulse duration) delivered at 3/min to the stimulating electrode. Field EPSPs are monitored until a stable baseline is achieved (about 20-30 min), after which a solution of test compound is injected intraperitoneally and evoked field potentials are recorded. Evoked potentials were recorded for approximately 2 h following drug administration or until the amplitude of the field EPSP returns to baseline. In the latter instance, it is common that an iv administration is also carried out with an appropriate dose of the same test compound. Invention compounds were assayed in the in vivo electrophysiology assay described above and data for representative test compounds is shown in the Table.
The electrophysiological effects of invention compounds were tested in vivo in anesthetized animals according to the following procedures.
as §1, with “Animals” for “The electrophysiological effects of the invention compounds were tested in vivo in anesthetized animals according to the following procedures. Animals”, “are” for “were”, “compound.” for “compound. Invention compounds were assayed in the in vivo electrophysiology assay described above and data for representative test compounds is shown in the Table.”

| SMILES | In vivo Electrophysiology: % increase in the amplitude of the field EPSP in the dentate gyrus of rat (AMPA receptor) | melting point | increase in amplitude of the field EPSP (AMPA receptor; rat dentate gyrus, 50 mg/kg i.p.) |
| --- | --- | --- | --- |
| O=C(c1ccc2nonc2c1)N1C2CCC1COC2 [Example 1, [2,1,3]-Benzoxadiazol-5-yl(3-oxa-8-azabicyclo[3.2.1]oct-8-yl)methanone] | 17% | 139 to 140 °C |  |
| O=C(c1ccc2nonc2c1)N1C2COCC1COC2 [Example 3, [2,1,3]-Benzoxadiazol-5-yl(3,7-dioxa-9-azabicyclo[3.3.1]non-9-yl)methanone] | 15% | 197 to 199 °C |  |
| O=C(c1ccc2nonc2c1)N1C2CCCC1COC2 [Example 2, [2,1,3]-Benzoxadiazol-5-yl(3-oxa-9-azabicyclo[3.3.1]non-9-yl)methanone] | 16% | 128 to 130 °C |  |
| O=C(c1ccc2nccnc2c1)N1CCCCC1 [CX516, 1-(quinoxalin-6-ylcarbonyl)piperdine, reference compound] |  |  | 9% |
